{
  "source": "patent US20230295115A1",
  "about": "“SUBSTITUTED ISOQUINOLINYLMETHYL AMIDES, ANALOGUES THEREOF, AND METHODS USING SAME” (priority 2020, published 2023)",
  "system": "HBV rcDNA",
  "experiment": "HepDE19 assay with bDNA quantitation of HBV rcDNA",
  "assay_type": "cell-based, hepatitis B virus (HBV)",
  "method": "HepDE19 assay with bDNA quantitation of HBV rcDNA:\nHepDE19 (50,000 cells/well) were plated in 96-well collagen-coated tissue-culture treated microtiter plates in DMEM/F12 medium supplemented with 10% fetal bovine serum, 1% penicillin-streptomycin and 1 μg/mL tetracycline and incubated in a humidified incubator at 37° C. and 5% CO2 overnight. Next day, the cells were switched to fresh medium without tetracycline and incubated for 4 hours at 37° C. and 5% CO2. […] The final DMSO concentration in the assay was 0.5%. The plates were incubated for 7 days in a humidified incubator at 37° C. and 5% CO2. Following a 7 day-incubation, the level of rcDNA present in the inhibitor-treated wells was measured using a Quantigene 2.0 bDNA assay kit (Affymetrix, Santa Clara, CA) with HBV specific custom probe set and manufacturers instructions. Concurrently, the effect of compounds on cell viability was assessed using replicate plates, plated at a density of 5,000 cells/well and incubated for 4 days, to determine the ATP content as a measure of cell viability using the cell-titer glo reagent (CTG; Promega Corporation, Madison, WI) as per manufacturer's instructions.",
  "key": {"[1]": {"conditions": "Hepatitis B virus, HepDE19, 168 h, HepDE19 cells, 7 day incubation, rcDNA measured by Quantigene 2.0 bDNA assay, top concentration 25 μM; read-out: DE-19bDNA EC50"}, "[2]": {"conditions": "HepDE19 cells, 7 day incubation, rcDNA measured by Quantigene 2.0 bDNA assay, top concentration 25 μM; read-out: DE-19bDNA EC50"}, "[3]": {"conditions": "read-out: DE-19bDNA EC50; HepDE19 cells, 7 day incubation, rcDNA measured by Quantigene 2.0 bDNA assay, top concentration 25 μM"}},
  "note": "Where two headings read alike, the source gives them in different places.",
  "data": [
    {"smiles": "CC(c1c[nH]c(=O)c2cc(F)c(F)cc12)N(C)C(=O)C1Nc2ccccc2C1(C)C", "note": "(stereo not shown) [Compound 112, N-(1-(6,7-Difluoro-1-oxo-1,2-dihydroisoquinolin-4-yl)ethyl)-N,3,3-trimethylindoline-2-carboxamide]", "values": [
      {"measurement": "EC50", "setting": "[1]", "result": 21000, "unit": "nM"}
    ]},
    {"smiles": "CC(c1c[nH]c(=O)c2cc(F)c(F)cc12)N(C)C(=O)c1ccc(Cl)c(F)c1", "note": "(single isomer, unassigned) [Compound 121, 4-Chloro-N-(1-(6,7-difluoro-1-oxo-1,2-dihydroisoquinolin-4-yl)ethyl)-3-fluoro-N-methylbenzamide]", "values": [
      {"measurement": "EC50", "setting": "[2]", "result": 5680, "unit": "nM"}
    ]},
    {"smiles": "CC(c1c[nH]c(=O)c2cc(F)c(F)cc12)N(CCCO)C(=O)Cc1cc2ccccc2[nH]1", "note": "(single isomer, unassigned) [Compound 84, N-(1-(6,7-Difluoro-1-oxo-1,2-dihydroisoquinolin-4-yl)ethyl)-N-(3-hydroxypropyl)-2-(1H-indol-2-yl)acetamide]", "values": [
      {"measurement": "EC50", "setting": "[3]", "result": 420, "unit": "nM"}
    ]},
    {"smiles": "COc1ncc(C(C)N(C)C(=O)c2cc3c(F)cccn3c2)c2cc(F)c(F)cc12", "note": "(single isomer, unassigned) [Compound 179, N-(1-(6,7-difluoro-1-methoxyisoquinolin-4-yl)ethyl)-8-fluoro-N-methylindolizine-2-carboxamide]", "values": [
      {"measurement": "EC50", "setting": "[2]", "result": 9380, "unit": "nM"}
    ]},
    {"smiles": "COc1ncc(C(C)N(C)C(=O)c2cc3cc(F)c(F)cc3[nH]2)c2cc(F)c(F)cc12", "note": "(single isomer, unassigned) [Compound 169, N-(1-(6,7-Difluoro-1-methoxyisoquinolin-4-yl)ethyl)-5,6-difluoro-N-methyl-1H-indole-2-carboxamide]", "values": [
      {"measurement": "EC50", "setting": "[2]", "result": 130, "unit": "nM"}
    ]},
    {"smiles": "CC(c1c[nH]c(=O)c2cc(F)c(F)cc12)N(C)C(=O)c1ccc(Cl)c(F)c1", "note": "(single isomer, unassigned) [Compound 122, 4-Chloro-N-(1-(6,7-difluoro-1-oxo-1,2-dihydroisoquinolin-4-yl)ethyl)-3-fluoro-N-methylbenzamide]", "values": [
      {"measurement": "EC50", "setting": "[2]", "result": 40, "unit": "nM"}
    ]},
    {"smiles": "CC(c1cn(C)c(=O)c2cc(F)c(F)cc12)N(C)C(=O)c1cc2cc(F)c(F)cc2[nH]1", "note": "(single isomer, unassigned) [Compound 173, N-(1-(6,7-difluoro-2-methyl-1-oxo-1,2-dihydroisoquinolin-4-yl)ethyl)-5,6-difluoro-N-methyl-1H-indole-2-carboxamide]", "values": [
      {"measurement": "EC50", "setting": "[2]", "result": 2120, "unit": "nM"}
    ]},
    {"smiles": "CC(c1c[nH]c(=O)c2cc(F)c(F)cc12)N(C)C(=O)c1[nH]c2ccccc2c1Cl", "note": "(racemic) [Compound 60, 3-Chloro-N-(1-(6,7-difluoro-1-oxo-1,2-dihydroisoquinolin-4-yl)ethyl)-N-methyl-1H-indole-2-carboxamide]", "values": [
      {"measurement": "EC50", "setting": "[1]", "result": 800, "unit": "nM"}
    ]},
    {"smiles": "CC(c1c[nH]c(=O)c2cc(F)c(F)cc12)N(C)C(=O)c1ccc(F)c(Cl)c1", "note": "(single isomer, unassigned) [Compound 135, 3-Chloro-N-(1-(6,7-difluoro-1-oxo-1,2-dihydroisoquinolin-4-yl)ethyl)-4-fluoro-N-methylbenzamide]", "values": [
      {"measurement": "EC50", "setting": "[2]", "result": 9610, "unit": "nM"}
    ]},
    {"smiles": "CC(c1c[nH]c(=O)c2cc(F)c(F)cc12)N(C)C(=O)c1cc2c(F)c(F)ccc2[nH]1", "note": "(racemic) [Compound 29, N-(1-(6,7-Difluoro-1-oxo-1,2-dihydroisoquinolin-4-yl)ethyl)-4,5-difluoro-N-methyl-1H-indole-2-carboxamide]", "values": [
      {"measurement": "EC50", "setting": "[1]", "result": 40, "unit": "nM"}
    ]},
    {"smiles": "CC(c1c[nH]c(=O)c2cc(F)c(F)cc12)N(C)C(=O)c1cc2ccc(F)cc2[nH]1", "note": "(single isomer, unassigned) [Compound 12, N-(1-(6,7-Difluoro-1-oxo-1,2-dihydroisoquinolin-4-yl)ethyl)-6-fluoro-N-methyl-1H-indole-2-carboxamide]", "values": [
      {"measurement": "EC50", "setting": "[2]", "result": 20, "unit": "nM"}
    ]},
    {"smiles": "CC(c1c[nH]c(=O)c2cc(F)c(F)cc12)N(C)C(=O)c1cc2ccc(F)cn2c1", "note": "(single isomer, unassigned) [Compound 103, N-(1-(6,7-Difluoro-1-oxo-1,2-dihydroisoquinolin-4-yl)ethyl)-6-fluoro-N-methylindolizine-2-carboxamide]", "values": [
      {"measurement": "EC50", "setting": "[2]", "result": 30, "unit": "nM"}
    ]},
    {"smiles": "CC(c1c[nH]c(=O)c2c(F)c(F)ccc12)N(C)C(=O)c1cc2ccccn2c1", "note": "(single isomer, unassigned) [Compound 71, N-(1-(7,8-Difluoro-1-oxo-1,2-dihydroisoquinolin-4-yl)ethyl)-N-methylindolizine-2-carboxamide]", "values": [
      {"measurement": "EC50", "setting": "[3]", "result": 6500, "unit": "nM"}
    ]},
    {"smiles": "CCN(C(=O)c1cc2ccccc2[nH]1)C(C)c1c[nH]c(=O)c2cc(F)c(F)cc12", "note": "(single isomer, unassigned) [Compound 5, N-(1-(6,7-Difluoro-1-oxo-1,2-dihydroisoquinolin-4-yl)ethyl)-N-ethyl-1H-indole-2-carboxamide]", "values": [
      {"measurement": "EC50", "setting": "[2]", "result": 1700, "unit": "nM"}
    ]},
    {"smiles": "CC(c1c[nH]c(=O)c2c(F)c(F)ccc12)N(C)C(=O)C1Cc2c(F)cc(F)cc2N1", "note": "(stereo not shown) [Compound 67, N-(1-(7,8-Difluoro-1-oxo-1,2-dihydroisoquinolin-4-yl)ethyl)-4,6-difluoro-N-methylindoline-2-carboxamide]", "values": [
      {"measurement": "EC50", "setting": "[2]", "result": 3100, "unit": "nM"}
    ]},
    {"smiles": "CC(c1c[nH]c(=O)c2cc(F)c(F)cc12)N(C)C(=O)c1cc2c(F)cccc2[nH]1", "note": "(single isomer, unassigned) [Compound 8, N-(1-(6,7-Difluoro-1-oxo-1,2-dihydroisoquinolin-4-yl)ethyl)-4-fluoro-N-methyl-1H-indole-2-carboxamide]", "values": [
      {"measurement": "EC50", "setting": "[2]", "result": 20, "unit": "nM"}
    ]},
    {"smiles": "CC(c1c[nH]c(=O)c2c(F)c(F)ccc12)N(C)C(=O)c1cc2c([nH]1)CCC2", "note": "(single isomer, unassigned) [Compound 57, N-(1-(7,8-Difluoro-1-oxo-1,2-dihydroisoquinolin-4-yl)ethyl)-N-methyl-1,4,5,6-tetrahydrocyclopenta[b]pyrrole-2-carboxamide]", "values": [
      {"measurement": "EC50", "setting": "[2]", "result": 12000, "unit": "nM"}
    ]},
    {"smiles": "CC(c1c[nH]c(=O)c2c(F)c(F)ccc12)N(C)C(=O)C1Cc2cc(F)ccc2N1", "note": "(stereo not shown) [Compound 74, N-(1-(7,8-Difluoro-1-oxo-1,2-dihydroisoquinolin-4-yl)ethyl)-5-fluoro-N-methylindoline-2-carboxamide]", "values": [
      {"measurement": "EC50", "setting": "[2]", "result": 260, "unit": "nM"}
    ]},
    {"smiles": "CC(c1c[nH]c(=O)c2cc(F)c(F)cc12)N(CCCO)C(=O)c1[nH]c2ccccc2c1Cl", "note": "(single isomer, unassigned) [Compound 95, 3-Chloro-N-(1-(6,7-difluoro-1-oxo-1,2-dihydroisoquinolin-4-yl)ethyl)-N-(3-hydroxypropyl)-1H-indole-2-carboxamide]", "values": [
      {"measurement": "EC50", "setting": "[2]", "result": 400, "unit": "nM"}
    ]},
    {"smiles": "CC(c1c[nH]c(=O)c2cc(F)c(F)cc12)N(C)C(=O)c1cc2ccc(Cl)cn2c1", "note": "(single isomer, unassigned) [Compound 111, 6-Chloro-N-(1-(6,7-difluoro-1-oxo-1,2-dihydroisoquinolin-4-yl)ethyl)-N-methylindolizine-2-carboxamide]", "values": [
      {"measurement": "EC50", "setting": "[2]", "result": 1400, "unit": "nM"}
    ]},
    {"smiles": "CC(c1c[nH]c(=O)c2cc(F)c(F)cc12)N(C)C(=O)c1ccccc1", "note": "(single isomer, unassigned) [Compound 127, N-(1-(6,7-Difluoro-1-oxo-1,2-dihydroisoquinolin-4-yl)ethyl)-N-methylbenzamide]", "values": [
      {"measurement": "EC50", "setting": "[3]", "result": 3530, "unit": "nM"}
    ]},
    {"smiles": "CC(c1c[nH]c(=O)c2cc(F)c(F)cc12)N(C)C(=O)C(=O)NC1CC1", "note": "(racemic) [Compound 143, N1-Cyclopropyl-N2-(1-(6,7-difluoro-1-oxo-1,2-dihydroisoquinolin-4-yl)ethyl)-N2-methyloxalamide]", "values": [
      {"measurement": "EC50", "setting": "[1]", "result": "≥ 25000", "unit": "nM"}
    ]},
    {"smiles": "CC(c1c[nH]c(=O)c2cc(F)c(F)cc12)N(C)C(=O)c1cc2cc(F)c(F)cc2[nH]1", "note": "(single isomer, unassigned) [Compound 15, N-(1-(6,7-Difluoro-1-oxo-1,2-dihydroisoquinolin-4-yl)ethyl)-5,6-difluoro-N-methyl-1H-indole-2-carboxamide]", "values": [
      {"measurement": "EC50", "setting": "[2]", "result": 1600, "unit": "nM"}
    ]},
    {"smiles": "CC(c1cn(C)c(=O)c2cc(F)c(F)cc12)N(C)C(=O)c1ccc(Br)cc1", "note": "(single isomer, unassigned) [Compound 168, 4-bromo-N-(1-(6,7-difluoro-2-methyl-1-oxo-1,2-dihydroisoquinolin-4-y1)ethyl)-N-methylbenzamide]", "values": [
      {"measurement": "EC50", "setting": "[2]", "result": 30, "unit": "nM"}
    ]},
    {"smiles": "CC(C)CN(C(=O)c1ccc(C(F)(F)F)c(F)c1)C(C)c1c[nH]c(=O)c2c(F)c(F)ccc12", "note": "(racemic) [Compound 118, N-(1-(7,8-Difluoro-1-oxo-1,2-dihydroisoquinolin-4-yl)ethyl)-3-fluoro-N-isobutyl-4-(trifluoromethyl)benzamide]", "values": [
      {"measurement": "EC50", "setting": "[1]", "result": 2230, "unit": "nM"}
    ]},
    {"smiles": "CC(c1c[nH]c(=O)c2c(F)c(F)ccc12)N(C)C(=O)c1cc2c([nH]1)CCC2", "note": "(single isomer, unassigned) [Compound 58, N-(1-(7,8-Difluoro-1-oxo-1,2-dihydroisoquinolin-4-yl)ethyl)-N-methyl-1,4,5,6-tetrahydrocyclopenta[b]pyrrole-2-carboxamide]", "values": [
      {"measurement": "EC50", "setting": "[2]", "result": 1800, "unit": "nM"}
    ]},
    {"smiles": "CC(c1cn(C)c(=O)c2cc(F)c(F)cc12)N(C)C(=O)c1cc2c(F)cccn2c1", "note": "(single isomer, unassigned) [Compound 172, N-(1-(6,7-difluoro-2-methyl-1-oxo-1,2-dihydroisoquinolin-4-yl)ethyl)-8-fluoro-N-methylindolizine-2-carboxamide]", "values": [
      {"measurement": "EC50", "setting": "[2]", "result": 90, "unit": "nM"}
    ]},
    {"smiles": "CC(c1c[nH]c(=O)c2cc(F)c(F)cc12)N(C)C(=O)c1cc2cc(F)ccn2c1", "note": "(single isomer, unassigned) [Compound 108, N-(1-(6,7-Difluoro-1-oxo-1,2-dihydroisoquinolin-4-yl)ethyl)-7-fluoro-N-methylindolizine-2-carboxamide]", "values": [
      {"measurement": "EC50", "setting": "[2]", "result": 20, "unit": "nM"}
    ]}
  ]
}
